Among the test systems are HOP-62; U-251; COLO 205; UO-31; HCC 2998; K562; NCI-H522; SF-539; A498; CCRF-CEM; CAKI-1; NCI-H23; MDA-MB-435; OVCAR-3; NCI-H460; HCT-15; IGROV-1; UACC-257; HL-60; Hs-578T.
What all share (test): NCI tumour cell line growth inhibition, 48 h

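1) Cells in 96-well plates. 2) Compound, 48 h, 5 concentrations. 3) Linear interpolation between surrounding doses. 4) Unreached endpoint = highest concentration. At the GI50, growth is halved.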 The source made the active and inactive calls. Cut-off read from the data, not from the text of the source: active = GI50 up to about 1.1 µM and inactive = higher. Some results are limits rather than exact numbers.

The results in this text go back to ChEMBL document CHEMBL1201862, “PubChem BioAssay data set” (2004).

Take `CC[C@@]1(CCC(=O)NCCc2c[nH]c3ccccc23)CCC(=O)N2CCc3c([nH]c4ccccc34)[C@H]21`: the GI50 in the experiment with HOP-62 was 37 µM (inactive); with U-251 it was 29.8 µM (inactive); with COLO 205, 24.2 µM (inactive); with UO-31 it was 22.9 µM (inactive); in the experiment on HCC 2998, 14.2 µM (inactive); in the experiment on K562, 7.45 µM (inactive). The GI50 in the experiment with NCI-H522 is 3.9 µM (inactive); in the experiment with SF-539 it was 12 µM (inactive); with A498, 27.1 µM (inactive); in the experiment on CCRF-CEM it was 7.33 µM (inactive); in the experiment with CAKI-1 it was > 100 µM (inactive); in the experiment with NCI-H23, 10.3 µM (inactive). For the same molecule, the GI50 in the experiment with MDA-MB-435 was 7.36 µM (inactive); in the experiment on OVCAR-3 it was 24.5 µM (inactive); in the experiment on NCI-H460, 6.89 µM (inactive); with HCT-15, 20 µM; in the experiment with IGROV-1, 4.04 µM (inactive); in the experiment with UACC-257 it was 14 µM (inactive).
Take `S=C(NCCc1ccccn1)N/N=C/c1ccccn1`: the GI50 was 0.0149 µM (active) in the experiment with HOP-62; < 0.01 µM (active) in the experiment with COLO 205; 3.06 µM (inactive) with HCC 2998; < 0.01 µM (active) with K562; < 0.01 µM (active) in the experiment on NCI-H522; 0.127 µM (active) with SF-539. Further, the GI50 is < 0.01 µM (active) with CCRF-CEM; < 0.01 µM (active) in the experiment with CAKI-1; < 0.01 µM (active) in the experiment on NCI-H23; 4.09 µM (inactive) in the experiment on MDA-MB-435; < 0.01 µM (active) in the experiment with OVCAR-3; < 0.01 µM (active) with HL-60. For the same molecule, the GI50 is 0.501 µM (active) with NCI-H460, < 0.01 µM (active) in the experiment on IGROV-1 and < 0.0113 µM (active) in the experiment with UACC-257.
Consider `COc1ccc(C2C3CCc4ccccc4C3=NN2S(=O)(=O)c2ccc(/C=C/C(=O)O)cc2)cc1` (stereo not given), for which the GI50 in the experiment on HOP-62 was 5.61 µM (inactive); with U-251, 3.21 µM (inactive); with COLO 205 it was 2 µM (inactive); with UO-31 it was 5.74 µM (inactive); in the experiment on K562, 2.84 µM (inactive); with NCI-H522, 2.31 µM (inactive). For the same molecule, the GI50 in the experiment with SF-539 was 2.3 µM (inactive); in the experiment on CCRF-CEM, 3.46 µM (inactive); in the experiment with CAKI-1, 8.93 µM (inactive); in the experiment with NCI-H23, < 0.01 µM (active); in the experiment with MDA-MB-435, 1.07 µM (active); in the experiment with OVCAR-3, 3.99 µM (inactive). Further, the GI50 in the experiment with HL-60 was 3.07 µM (inactive); in the experiment with NCI-H460 it was 3.52 µM (inactive); in the experiment on HCT-15, 0.188 µM; in the experiment on IGROV-1 it was 0.755 µM (active).
As to `O=C1NC2ON=C(c3ccccc3)C2C2ON=C(c3ccccc3)N12` (stereo not given), the GI50 with HOP-62 is > 100 µM (inactive); with Hs-578T, 63.2 µM (inactive); in the experiment on COLO 205 it was > 100 µM (inactive); with UO-31 it was > 100 µM (inactive); with HCC 2998, > 100 µM (inactive); in the experiment with NCI-H522, 40.5 µM (inactive). For the same molecule, the GI50 is > 100 µM (inactive) in the experiment with SF-539; > 100 µM (inactive) in the experiment on CAKI-1; > 100 µM (inactive) with NCI-H23; > 100 µM (inactive) with OVCAR-3; > 100 µM (inactive) in the experiment on NCI-H460; 43.4 µM with HCT-15. Besides, the GI50 in the experiment on IGROV-1 is 54.3 µM (inactive); with UACC-257, > 100 µM (inactive).
Consider `COc1cc2nc(-c3ccccc3F)nc(O)c2cc1OC`, for which the GI50 in the experiment on HOP-62 is 92.5 µM (inactive); in the experiment with Hs-578T, 42.9 µM (inactive); in the experiment with COLO 205 it was > 100 µM (inactive); with UO-31, 63.2 µM (inactive); in the experiment on HCC 2998 it was > 100 µM (inactive); in the experiment on K562, > 100 µM (inactive). Besides, the GI50 was 89.5 µM (inactive) with NCI-H522; > 100 µM (inactive) with A498; > 100 µM (inactive) in the experiment with CCRF-CEM; > 100 µM (inactive) in the experiment on CAKI-1; > 100 µM (inactive) in the experiment on NCI-H23; > 100 µM (inactive) in the experiment with OVCAR-3. Besides, the GI50 was > 100 µM (inactive) in the experiment with HL-60; 71.8 µM (inactive) with NCI-H460; 49.2 µM in the experiment with HCT-15; > 100 µM (inactive) in the experiment on IGROV-1; > 100 µM (inactive) with UACC-257.
`OC(c1cccs1)c1cc2ccccc2s1` (stereo not given): the GI50 with HOP-62, in the experiment on U-251, with Hs-578T, with COLO 205, in the experiment with UO-31 and with HCC 2998 was > 10 µM (inactive) throughout. In addition, the GI50 with K562, in the experiment with NCI-H522, in the experiment on SF-539, in the experiment on CCRF-CEM, in the experiment with CAKI-1 and in the experiment on NCI-H23 was > 10 µM (inactive) throughout. The GI50 is > 10 µM (inactive) with MDA-MB-435; > 10 µM (inactive) with OVCAR-3; > 10 µM (inactive) in the experiment with HL-60; > 10 µM (inactive) in the experiment on NCI-H460; > 10 µM in the experiment on HCT-15; > 10 µM (inactive) with IGROV-1. For the same molecule, the GI50 in the experiment with UACC-257 is > 10 µM (inactive).
Take `N#Cc1c(-c2ccc(Cl)cc2)cc(-c2ccc(Nc3ccnc4cc(C(F)(F)F)ccc34)cc2)nc1N`: the GI50 in the experiment on HOP-62 was 19.7 µM (inactive); in the experiment with U-251 it was 18.7 µM (inactive); in the experiment on COLO 205 it was 29.4 µM (inactive); in the experiment on UO-31 it was 15.7 µM (inactive); with HCC 2998, 64.3 µM (inactive); in the experiment with K562, 14.5 µM (inactive). Moreover, the GI50 in the experiment with NCI-H522 is 31.4 µM (inactive); in the experiment with SF-539, 18.5 µM (inactive); in the experiment with A498 it was 19.6 µM (inactive); with CCRF-CEM it was 12.4 µM (inactive); in the experiment with CAKI-1, 57.7 µM (inactive); in the experiment on NCI-H23 it was 57.5 µM (inactive). For the same molecule, the GI50 with MDA-MB-435 was 19.5 µM (inactive); in the experiment on NCI-H460 it was 32.8 µM (inactive); in the experiment with HCT-15 it was 17.9 µM; with IGROV-1 it was 29.2 µM (inactive); with UACC-257, > 100 µM (inactive).
Turning to `C(=C\Nc1ccc(-c2ccccc2)cc1)/C=N/c1ccc(-c2ccccc2)cc1`, the GI50 in the experiment on HOP-62, in the experiment with U-251, in the experiment with Hs-578T, with COLO 205, in the experiment on UO-31 and in the experiment on K562 was > 100 µM (inactive) each time. The GI50 in the experiment on NCI-H522, in the experiment on SF-539, with CCRF-CEM, in the experiment with CAKI-1, in the experiment with NCI-H23 and in the experiment on MDA-MB-435 was > 100 µM (inactive) each time. Besides, the GI50 in the experiment with OVCAR-3 was > 100 µM (inactive); in the experiment with HL-60, > 100 µM (inactive); with NCI-H460, > 100 µM (inactive); in the experiment on HCT-15 it was > 100 µM; in the experiment on IGROV-1, > 100 µM (inactive); with UACC-257, > 100 µM (inactive).
For the molecule `CCOC(=O)c1c(NC(=O)c2ccc(OC)cc2)sc2c1CCCC2`, the GI50 in the experiment on HOP-62, in the experiment with U-251, with Hs-578T, in the experiment with COLO 205, in the experiment on UO-31 and in the experiment on K562 was > 100 µM (inactive) in each case. Also, the GI50 in the experiment on SF-539, with A498, with CCRF-CEM, in the experiment with CAKI-1, in the experiment on NCI-H23 and in the experiment with MDA-MB-435 was > 100 µM (inactive) throughout. For the same molecule, the GI50 with OVCAR-3 is > 100 µM (inactive); in the experiment with HL-60 it was 2.25 µM (inactive); with NCI-H460, > 100 µM (inactive); in the experiment with IGROV-1, > 100 µM (inactive); with UACC-257 it was > 100 µM (inactive).
For the molecule `S=C1CSc2c(ccc3ccccc23)N1`, the GI50 in the experiment on HOP-62 is > 100 µM (inactive); with U-251, > 100 µM (inactive); in the experiment on Hs-578T, 51.4 µM (inactive); in the experiment on COLO 205 it was > 100 µM (inactive); in the experiment on UO-31, > 100 µM (inactive); in the experiment with K562 it was > 100 µM (inactive). In addition, the GI50 with NCI-H522, with CCRF-CEM, with CAKI-1, with NCI-H23, in the experiment with MDA-MB-435 and in the experiment on OVCAR-3 was > 100 µM (inactive) throughout. For the same molecule, the GI50 in the experiment on HL-60 is > 100 µM (inactive); in the experiment on NCI-H460, > 100 µM (inactive); in the experiment with HCT-15, > 100 µM; in the experiment with IGROV-1, > 100 µM (inactive); in the experiment with UACC-257, > 100 µM (inactive).
Turning to `COc1ccc([C@H](NC(=O)c2ccccc2)[C@@H](O)C(=O)O[C@H]2C[C@@]3(O)C(OC(=O)c4ccccc4)C4[C@](C)(C(=O)[C@H](OC(C)=O)C(=C2C)C3(C)C)[C@@H](O)C[C@H]2OC[C@@]42OC(C)=O)cc1` (stereo not given in full), the GI50 in the experiment with HOP-62 is 0.015 µM (active); with U-251, 0.00695 µM (active); with Hs-578T it was < 0.001 µM (active); with COLO 205, 0.00274 µM (active); in the experiment on UO-31, 0.126 µM (active); in the experiment with HCC 2998, 0.00301 µM (active). In addition, the GI50 is 0.00122 µM (active) with K562; 0.00227 µM (active) in the experiment on NCI-H522; 0.00112 µM (active) with SF-539; 0.00184 µM (active) in the experiment with CCRF-CEM; 0.249 µM (active) in the experiment with CAKI-1; 0.00236 µM (active) with NCI-H23. The GI50 with MDA-MB-435 is < 0.001 µM (active); in the experiment on HL-60 it was < 0.001 µM (active); in the experiment with NCI-H460, 0.00931 µM (active); in the experiment with HCT-15 it was 0.366 µM; in the experiment with IGROV-1, 0.00344 µM (active); in the experiment with UACC-257, 0.00542 µM (active).
On to `Cc1cc(=O)n2nc(CSc3nnc(N)s3)sc2n1`, for which the GI50 in the experiment on HOP-62, in the experiment with U-251, in the experiment on Hs-578T, in the experiment with COLO 205, in the experiment on UO-31 and in the experiment on HCC 2998 was > 100 µM (inactive) in each case. In addition, the GI50 in the experiment with K562, with NCI-H522, with SF-539, in the experiment with CCRF-CEM, with CAKI-1 and with NCI-H23 was > 100 µM (inactive) each time. The GI50 in the experiment on MDA-MB-435 is > 100 µM (inactive); with OVCAR-3 it was > 100 µM (inactive); in the experiment with HL-60 it was > 100 µM (inactive); with NCI-H460, > 100 µM (inactive); in the experiment on HCT-15, > 100 µM; in the experiment with IGROV-1, > 100 µM (inactive). In addition, the GI50 in the experiment on UACC-257 is > 100 µM (inactive).
